According to ChEMBL document CHEMBL1201862, “PubChem BioAssay data set” (2004):
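Exposure lasted 48 hours, with cells grown in 96-well plates and compounds tested at five concentrations. GI50 is the concentration that inhibits growth by half.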 Active and inactive are the calls of the source. Rule as the data show it: active = GI50 up to about 1.1 µM and inactive = higher.

Key:
Assay in all cases: NCI anticancer screen, dose series, 48 h
RXF 393 = system: RXF 393
HL-60 = system: HL-60
IGROV-1 = system: IGROV-1
NCI-H460 = system: NCI-H460
SNB-19 = system: SNB-19
786-0 = system: 786-0
SK-MEL-5 = system: SK-MEL-5
M14 = system: M14
UACC-62 = system: UACC-62
SK-MEL-2 = system: SK-MEL-2
HCC 2998 = system: HCC 2998
TK-10 = system: TK-10
HOP-92 = system: HOP-92
SF-295 = system: SF-295
HT-29 = system: HT-29
KM12 = system: KM12
UACC-257 = system: UACC-257

Measured: GI50

O=C(c1ccccc1)C(c1ccccc1)C1(O)C(=O)Nc2ccc([N+](=O)[O-])cc21 (stereo unspecified)
inactive: RXF 393 > 100 µM | HL-60 42.9 µM | IGROV-1 > 100 µM | NCI-H460 > 100 µM | SNB-19 > 100 µM | 786-0 > 100 µM | SK-MEL-5 24 µM | M14 > 100 µM | UACC-62 58.1 µM | SK-MEL-2 > 100 µM | HCC 2998 > 100 µM | TK-10 > 100 µM | HOP-92 31.8 µM

COC(=O)/C=C(C)/C=C/c1c(C)c(C(C)=O)c(C)n1C
inactive: SF-295 > 100 µM | HL-60 49.9 µM | IGROV-1 > 100 µM | SNB-19 > 100 µM | 786-0 > 100 µM | M14 > 100 µM | HT-29 > 100 µM | KM12 > 100 µM | UACC-62 96.2 µM | HCC 2998 > 100 µM | TK-10 > 100 µM | HOP-92 18.3 µM | UACC-257 > 100 µM

COC(OC)C(C)CC(=O)N(C)C (stereo unspecified)
inactive: SF-295 > 100 µM | HL-60 > 100 µM | IGROV-1 > 100 µM | NCI-H460 > 100 µM | SNB-19 > 100 µM | 786-0 > 100 µM | SK-MEL-5 > 100 µM | M14 > 100 µM | HT-29 > 100 µM | KM12 > 100 µM | UACC-62 > 100 µM | SK-MEL-2 > 100 µM | HCC 2998 > 100 µM | TK-10 > 100 µM | HOP-92 > 100 µM

C=C1C=CC2(Br)OC3CC(C)(Cl)C(Br)CC13C2(C)C (stereo unspecified)
inactive: SF-295 20.4 µM | HL-60 15.2 µM | IGROV-1 28.9 µM | NCI-H460 22 µM | SNB-19 27 µM | 786-0 33.8 µM | SK-MEL-5 17.3 µM | M14 21.2 µM | HT-29 18.1 µM | KM12 24.4 µM | UACC-62 17.8 µM | SK-MEL-2 17.6 µM | HCC 2998 20.4 µM | TK-10 37.2 µM | HOP-92 21.2 µM | UACC-257 18.5 µM

NC1=NC(=O)C(CC(=O)Nc2ccc(Cl)cc2Cl)S1 (stereo unspecified)
inactive: SF-295 > 100 µM | IGROV-1 > 100 µM | NCI-H460 > 100 µM | SNB-19 > 100 µM | 786-0 > 100 µM | SK-MEL-5 > 100 µM | M14 > 100 µM | HT-29 > 100 µM | KM12 > 100 µM | UACC-62 > 100 µM | SK-MEL-2 > 100 µM | HCC 2998 > 100 µM | TK-10 > 100 µM | UACC-257 > 100 µM

CCOC(=O)C1C=C2O[C@@H]3OC4(CCCCC4)O[C@@H]3C2C2C(=O)CCC(=O)[C@@]12C(=O)OC (stereo partly specified)
inactive: SF-295 > 100 µM | HL-60 > 100 µM | IGROV-1 > 100 µM | NCI-H460 > 100 µM | SNB-19 > 100 µM | 786-0 > 100 µM | SK-MEL-5 > 100 µM | M14 > 100 µM | HT-29 > 10 µM | KM12 > 100 µM | UACC-62 > 100 µM | SK-MEL-2 > 100 µM | HCC 2998 > 100 µM | HOP-92 > 100 µM | UACC-257 > 100 µM

[N-]=[N+]=N/C1=C/CCCCC(=O)C1
inactive: RXF 393 > 100 µM | HL-60 > 100 µM | IGROV-1 > 100 µM | NCI-H460 > 100 µM | SNB-19 > 100 µM | 786-0 > 100 µM | SK-MEL-5 > 100 µM | M14 > 100 µM | HT-29 > 100 µM | UACC-62 > 100 µM | SK-MEL-2 > 100 µM | HCC 2998 > 100 µM | TK-10 > 100 µM | HOP-92 51.4 µM | UACC-257 > 100 µM
